Laboratory results reported in US20170066717A1, “NEW PHENYLAZETIDINECARBOXYLATE OR -CARBOXAMIDE COMPOUNDS” (INVENTIVA, priority 2014, published 2017).
pEC50: −log10 of the molar value.

What was measured:
[1] = Plasma pharmacokinetics in mice after oral administration; format: in vivo; conditions: mouse, male C57/Bl6 mice, oral 10 mg/kg; for AUC: sampling 15 min to 7 h, log-linear trapezoidal method, read-out: AUCplasma; for Cmax: suspension in 1% methylcellulose/0.1% Poloxamer 188
Protocol: (§1) Three series of in vivo tests were carried out with compounds representative of the invention, for the purpose of determining their pharmacokinetic plasma profile and their brain penetration.
1. Study of the Plasma Phannacokinectis in Mice After Oral Administration
Male C57/B16 mice (25-30 g) originating from the establishment Janvier, Le Genest-St-Isle, France were used for this study (9 mice per dose). The animals were fed with standard feed for rodents (Purina Mills, St. Louis, Mo.), placed in cages and subjected to light/darkness cycles of 12 h/12 h, the temperature of the room being maintained at 22±2° C. and the humidity level at 55±10%.
The mice were not deprived food before the administration. Water was provided at will throughout the study. The test compound was admistered orally at 10 mg/kg. For the oral administration at 10 mg/kg, the animals were green, by gavage, 10 mL/kg of a suspension of the test compound, prepared in 1% methylcellulose, 400 cps/0.1% Poloxamer 188/water.
The animals were sacrificed under anesthesia at times 15 min, 30 min, 1 h, 3 h and 7 h after gavage. The blood was collected at each time, and from each animal sacrificed 0.5 mL of blood collected in 1.5 mL tubes containing 20 μL of evaporated anticoagulant (solution of sodium heparinate at 1000 IU/mL) was centrifuged at 4500 g for 3 min in order to obtain approximately 200 μL of plasma. The plasma was divided up into 2 aliquots of 70 μL minimum, which were stoted at −20° C. until they were treated by protein precipitation and then analysis by liquid chromatography coupled to tandem mass spectrometry (LC-MS/MS) in order to quantify the compound tested.
The pharmacokinetic plasma parameters in the mice after oral administration were determined using a non-compartmental approach with the Phoenix WinNonLin software. The area under the curve (AUC0-1) was determined bv the log-linear trapezoidal method. The tesults are brought together in the following table.

[2] = Brain penetration in rats after intravenous administration; format: in vivo; conditions: rat; for Kp at 4 h: male, Wistar, intravenous, 4 mg/kg, ratio of Cmax brain to Cmax plasma after the 4 hours of infusion, rats, read-out: Kp (partition coefficient between the brain and the plasma); for Cmax at 4 h: male Wistar rats, 4 mg/kg iv infusion into the jugular vein for 4 hours, plasma at end of infusion
Protocol: as §1
2. Study of the Brain Penetration in Rats After Intravenous Administration
Male Wistar rats (250-300 g) originating from the establishment Janvier, Le Genest-St-Isle, France were used for this study (4 rats per study). The animals were fed with standard feed for rodents (Purina Mills, St. Louis, Mo.), placed in cages and subjected to light/darkness cycles of 12 h/12 h, the room temperature being maintained at 22±2° C. and the humidity level at 55±10%. The rats were not deprived food before the administration. Water was provided at will throughout the study.
The test compound was administered intravenously at 4 mg/kg by infusion into the jugular vein for 4 hours. For the intravenous administration, the animals were infused with 12 mL/kg of a solution of the test compound, prepared in 2% Cremophor EL/0.9% NaCl.
The animals were sacrificed under anesthesia after 4 hours of infusion. The blood and the brain were collected from each sacrificed animal 0.5 mL of blood collected in 1.5 mL tubes containing 20 μL of evaporated anticoagulant (solution of sodium heparinate at 1000 IU/mL) was centrifuged at 4500 g for 3 min in order to obtain approximately 200 μL of plasma. The plasma was divided up into 2 aliquots of 70 μL minimum, which were stored at −20° C. until they were treated by protein precipitation and then analysis by liquid chromatography coupled to tandem mass spectrometry (LC-MS/MS) in order to quantify the compound tested.
The brains were immersed in liquid nitrogen directly after they were removed, then stored at −20° C. for analysis. The brains were then ground in the presence of an aqueous/organic solvent mixture in order to obtain a homogenate. These homogenates were then centrifuged and the compound tested was extracted from the supernatant obtained, by liquid-liquid extraction, and then quantified by LC-MS/MS.
The brain penetration in the rats is represented by the Kp, which is the partition coefficient between the brain and the plasma. It is calculated by the ratio of the concentration measured in the brain (Cmax brain) and the plasma (Cmax plasma) after the 4 hours of infusion.

[3] = molecular target: T1, NURR-1/RXRγ (Homo sapiens, UniProt P48443); assay: Transactivation test, NURR-1-Gal4/RXRγ, luciferase reporter in Cos-7 cells; format: cell-based; conditions: for pEC50: Cos-7 cells, NURR-1-Gal4/RXRγ, luciferase reporter, read-out: hNurr1_RXRgFL EC50; for Emax: COS-7, induction level relative to reference XCT0135908 at 2×10^−5 M (=100%), read-out: hNurr1_RXRgFL Emax (%)
T1 construct: expressed in transfected cells; host or cells: Cos-7 cells
T1 sequence (P48443 whole entry, the tested form may be a part): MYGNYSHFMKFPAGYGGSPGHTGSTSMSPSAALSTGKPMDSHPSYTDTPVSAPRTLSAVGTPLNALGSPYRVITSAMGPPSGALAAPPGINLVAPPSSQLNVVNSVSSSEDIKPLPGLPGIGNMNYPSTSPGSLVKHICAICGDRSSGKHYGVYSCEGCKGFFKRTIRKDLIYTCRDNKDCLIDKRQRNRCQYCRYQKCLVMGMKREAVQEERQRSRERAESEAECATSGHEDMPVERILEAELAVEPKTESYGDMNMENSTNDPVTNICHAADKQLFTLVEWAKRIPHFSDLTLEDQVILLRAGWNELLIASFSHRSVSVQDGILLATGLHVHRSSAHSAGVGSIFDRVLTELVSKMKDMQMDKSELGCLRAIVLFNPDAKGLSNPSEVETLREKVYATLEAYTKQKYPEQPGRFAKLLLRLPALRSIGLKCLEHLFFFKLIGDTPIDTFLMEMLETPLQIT
T1 sequence (P43354 whole entry partner, the tested form may be a part): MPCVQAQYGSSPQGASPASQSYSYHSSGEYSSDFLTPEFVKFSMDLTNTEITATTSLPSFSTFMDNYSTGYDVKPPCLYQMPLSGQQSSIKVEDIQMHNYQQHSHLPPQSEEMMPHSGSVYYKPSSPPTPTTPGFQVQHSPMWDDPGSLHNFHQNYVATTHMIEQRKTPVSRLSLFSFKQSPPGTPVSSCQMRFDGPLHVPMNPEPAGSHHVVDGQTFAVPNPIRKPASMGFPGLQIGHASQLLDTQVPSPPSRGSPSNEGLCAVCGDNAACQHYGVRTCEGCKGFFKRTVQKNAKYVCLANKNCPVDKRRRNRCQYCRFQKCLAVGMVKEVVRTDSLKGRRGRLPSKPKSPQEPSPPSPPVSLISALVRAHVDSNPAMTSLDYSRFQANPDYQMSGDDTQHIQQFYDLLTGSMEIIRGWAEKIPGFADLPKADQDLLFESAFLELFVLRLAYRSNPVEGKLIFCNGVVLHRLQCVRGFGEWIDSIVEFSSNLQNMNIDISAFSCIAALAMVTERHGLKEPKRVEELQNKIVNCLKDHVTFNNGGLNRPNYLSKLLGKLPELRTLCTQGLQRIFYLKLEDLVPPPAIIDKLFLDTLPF
T1 sequence (P04386 1-147 partner limits assumed): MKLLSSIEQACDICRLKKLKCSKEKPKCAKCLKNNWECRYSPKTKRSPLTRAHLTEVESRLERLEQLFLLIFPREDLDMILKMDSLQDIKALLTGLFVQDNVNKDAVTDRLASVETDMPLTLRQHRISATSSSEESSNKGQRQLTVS

[4] = molecular target: T2, NURR-1/RXRα (Homo sapiens, UniProt P19793); assay: Transactivation test, NURR-1-Gal4/RXRα, luciferase reporter in Cos-7 cells; format: cell-based; conditions: for pEC50: Cos-7 cells, NURR-1-Gal4/RXRα, luciferase reporter, read-out: hNurr1_RXRaFL EC50; for Emax: COS-7, induction level relative to reference XCT0135908 at 2×10^−5 M (=100%), read-out: hNurr1_RXRaFL Emax (%)
T2 construct: expressed in transfected cells; host or cells: Cos-7 cells
T2 sequence (P19793 whole entry, the tested form may be a part): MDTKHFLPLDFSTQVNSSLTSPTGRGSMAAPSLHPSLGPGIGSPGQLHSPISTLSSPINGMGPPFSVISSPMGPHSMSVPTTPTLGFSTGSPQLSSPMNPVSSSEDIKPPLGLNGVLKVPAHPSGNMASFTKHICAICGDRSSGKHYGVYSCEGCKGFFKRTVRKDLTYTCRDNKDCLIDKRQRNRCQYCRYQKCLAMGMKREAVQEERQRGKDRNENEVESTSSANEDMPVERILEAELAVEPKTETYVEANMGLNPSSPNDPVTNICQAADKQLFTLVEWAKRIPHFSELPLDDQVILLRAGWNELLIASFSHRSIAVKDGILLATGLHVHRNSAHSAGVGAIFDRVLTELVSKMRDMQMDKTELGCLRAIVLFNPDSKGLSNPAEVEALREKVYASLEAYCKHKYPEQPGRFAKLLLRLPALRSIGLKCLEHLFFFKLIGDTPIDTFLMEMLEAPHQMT
T2 sequence (P43354 whole entry partner, the tested form may be a part): as the sequence (P43354 whole entry partner, the tested form may be a part) above
T2 sequence (P04386 1-147 partner limits assumed): as the sequence (P04386 1-147 partner limits assumed) above

[5] = system: dopaminergic neurons of primary culture of rat embryo mesencephalon treated with MPP+; assay: Neuroprotection in primary culture of rat embryo mesencephalon treated with MPP+ (count of tyrosine hydroxylase expressing cells); format: cell-based; conditions: recombinant human BDNF 10 ng/mL = 100%, 2 days with MPP+
Protocol: Another in vitro test was carried out with the compounds according to the invention, for the purpose of verifying that the molecules indeed have the expected neuroprotective effect in vitro.
The compounds were tested in a model of primary culture of rat embryo mesencephalon treated with 1-methyl-4-phenylpyridinium (MPP+), which is the active metabolite of 1-methyl-4-phenyl-1,2,3,6-tetrahydropyridine (MPTP). MPP+ enters into dopananergic neurons via the dopamine transporter and causes the death of these dopaminergic neurons. The following protocol was used.
Gestating female rats (15 days of gestation) were euthanized and the rat embryos were removed. The mesencephalons were removed. The tissue was then dissociated mechanically and by using trypsin. The cells collected after centrifugation were distributed into 96-well plates and left to stand for 5 days. The culture conditions made it possible to obtain a cell layer composed of neurons (dopaminergic and others) and astrocytes. On the 6th day, the cells were optionally treated with MPP+ in the presence or absence of test compound. After 2 days of incubation, the cells were fixed and various cell labellings were carried out; staining of the nuclei with the Hoechst fluorescent label and immunolabelling of tyrosine hydroxylase. The cells expressing tyrosine hydroxylase were counted using an image analyzer coupled to an optical microscope.
Recombinant human BDNF trophic factor (10 ng/mL) was used as reference. The activities of the compounds are given as percentages of activity relative to the BDNF reference, the activity of which is arbitrarily defined as being equal to 100%.

[6] = induction level relative to reference XCT0135908 at 2×10^−5 M (=100%)

AUC [1]	Cmax [1]	Kp at 4 h [2]	Cmax at 4 h [2]	hNurr1_RXRgFL Emax (%) [3, 6]	melting point	hNurr1_RXRaFL Emax (%) [4, 6]	Structure (SMILES)	pEC50 [3]	pEC50 [4]	Emax [3]	percentage of activity relative to the BDNF reference ([5]; compound 1 μM)	percentage of activity relative to the BDNF reference ([5]; compound 10 μM)	Emax [4]
48200 ng·h/mL	15200 ng/mL	0.13	5800 ng/mL	95%	68 to 74 °C	97%	CC(C)CC1Oc2cc(C(F)(F)F)ccc2N(c2cccc(N3CC(C(=O)O)C3)c2)C1=O (single isomer, unassigned; isomer 1) [Example 246-1, 1-[3-[2-isobutyl-3-oxo-7-(trifluoromethyl)-1,4-benzoxazin-4-yl]phenyl]azetidine-3-carboxylate acid, isomer 1]	7.30	8.15	–	–	–	–
–	–	–	–	–	–	–	CN(C)S(=O)(=O)c1cn(-c2cccc(N3CC(C(=O)O)C3)c2)c2ccc(C(F)(F)F)cc12 [Example 136, 1-[3-[3-(dimethylsulfamoyl)-5-(trifluoromethyl)indol-1-yl]phenyl]azetidine-3-carboxylic acid]	7.26	7.66	121%	49%	86%	128%
–	–	–	–	–	–	–	Cc1cn(-c2cccc(N3CC(C(=O)NCCCO)C3)c2)c2ccc(C(F)(F)F)cc12 [Example 154, N-(3-hydroxypropyl)-1-[3-[3-methyl-5-(trifluoromethyl)indol-1-yl]phenyl]azetidine-3-carboxamide]	8.52	> 9.00	104%	67%	105%	111%
–	–	–	–	–	–	–	Cc1cn(-c2cccc(N3CC(C(=O)NCCc4c[nH]cn4)C3)c2)c2ccc(C(F)(F)F)cc12 [Example 155, N-[2-(1H-imidazol-4-yl)ethyl]-1-[3-[3-methyl-5-(trifluoromethyl)indol-1yl]phenyl]azetidine-3-carboxamide]	8.30	8.40	116%	49%	94%	123%
–	–	–	–	–	–	–	Cc1cn(-c2cccc(N3CC(C(=O)NCCOCCO)C3)c2)c2ccc(C(F)(F)F)cc12 [Example 158, N-[2-(2-hydroxethoxy)ethyl]-1-[3-[3-methyl-5-(trifluoromethyl)indol-1-yl]phenyl]azetidine-3-carboxamide]	8.40	8.70	125%	54%	77%	92%
–	–	–	–	–	–	–	Cc1cn(-c2cccc(N3CC(C(=O)NCCC#N)C3)c2)c2ccc(C(F)(F)F)cc12 [Example 159, N-(2-cyanoethyl)-1-[3-[3-methyl-5-(trifluoromethyl)indol-1-yl]phenyl]azetidine-3-carboxamide]	8.22	8.52	110%	73%	101%	115%
–	–	–	–	–	–	–	Cc1cn(-c2cccc(N3CC(C(=O)NCCCn4ccnc4)C3)c2)c2ccc(C(F)(F)F)cc12 [Example 160]	7.51	7.82	124%	54%	79%	115%
–	–	–	–	–	–	–	COCCNC(=O)C1CN(c2cccc(-n3cc(C)c4cc(C(F)(F)F)ccc43)c2)C1 [Example 173, N-(2-methoxyethyl)-1-[3-[3-methyl-5-(trifluoromethyly)indol-1-yl]phenyl]azetidine-3-carboxamide]	8.30	> 9.00	102%	18%	72%	103%
12100 ng·h/mL	6420 ng/mL	0.15	932 ng/mL	–	61 to 64 °C	–	CCC1COc2cc(C(F)(F)F)cc(-c3cccc(N4CC(C(=O)O)C4)c3)c2N1 (stereo not drawn) [Example 186, 1-[3-[3-ethyl-7-(trifluoromethyl)-3.4-dihydro-2H-1,4-benzoxazin-5-yl]phenyl]azetidine-3-carboxylic acid]	7.96	8.52	94%	–	–	102%
5190 ng·h/mL	2740 ng/mL	1.27	1360 ng/mL	–	205 to 213 °C	–	CC1(C)CNc2c(cc(C(C)(C)C)cc2-c2cccc(N3CC(C(=O)[O-])C3)c2)O1.[Na+] [Example 187, sodium 1-[3-(7-tert-butyl-2,2-dimethyl-3,4-dihydro-1,4-benzoxazin-5-yl)phenyl]azetidine-3-carboxylate]	7.64	8.30	80%	–	–	91%
30300 ng·h/mL	10200 ng/mL	–	–	–	61 to 74 °C	–	CCC1COc2cc(C(F)(F)F)ccc2N1c1cccc(N2CC(C(=O)O)C2)c1 (stereo not drawn) [Example 217, 1-[3-[3-ethyl-7-(trifluoromethyl)-2,3-dihydro-1,4-benzoxazin-4-yl]phenyl]azetidine-3-carboxylic acid]	7.34	7.85	125%	–	–	109%
576 ng·h/mL	252 ng/mL	3.06	337 ng/mL	–	–	–	CNC(=O)C1CN(c2cccc(N3CC(C)(C)Oc4cc(C(F)(F)F)ccc43)c2)C1 [Example 274, 1-[3-[2,2-dimethyl-7-(trifluoromethyl)3H-1,4-nemzoxazin-4-yl]phenyl]-N-methylazetidine-3-carboxamide]	8.10	8.22	110%	–	–	110%
